Data: ChEMBL document CHEMBL1134592, “Design and synthesis of matrix metalloproteinase inhibitors guided by molecular modeling. Picking the S(1) pocket using conformationally constrained inhibitors” (J Med Chem, 2001)

Key:
[1] = target: Matrix metalloproteinase-9 (Homo sapiens, UniProt P14780); test: Inhibition of human matrix metalloprotease-9
[2] = target: 72 kDa type IV collagenase (Homo sapiens, UniProt P08253); test: Inhibition of matrix metalloprotease-2
[3] = target: Stromelysin-1 (Homo sapiens, UniProt P08254); test: Inhibition of matrix metalloprotease-3
Sequence of Stromelysin-1 (P08254 whole entry): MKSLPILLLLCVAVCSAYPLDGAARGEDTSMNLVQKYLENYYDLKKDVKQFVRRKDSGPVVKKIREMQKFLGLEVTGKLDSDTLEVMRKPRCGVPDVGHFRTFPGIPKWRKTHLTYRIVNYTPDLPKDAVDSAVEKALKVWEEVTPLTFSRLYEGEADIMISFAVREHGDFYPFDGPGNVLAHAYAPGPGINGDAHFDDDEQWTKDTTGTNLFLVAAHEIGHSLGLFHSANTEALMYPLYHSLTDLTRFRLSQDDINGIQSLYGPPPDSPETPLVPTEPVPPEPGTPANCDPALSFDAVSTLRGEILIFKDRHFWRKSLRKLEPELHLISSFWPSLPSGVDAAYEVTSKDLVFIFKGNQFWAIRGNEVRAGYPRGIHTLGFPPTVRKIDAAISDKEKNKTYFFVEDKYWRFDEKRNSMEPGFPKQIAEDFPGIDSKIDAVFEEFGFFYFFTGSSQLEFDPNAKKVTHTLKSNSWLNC

[4] = target: Collagenase 3 (Homo sapiens, UniProt P45452); test: Inhibition of matrix metalloprotease-13
[5] = target: T1, Interstitial collagenase (Homo sapiens, UniProt P03956); test: Inhibition of human matrix metalloprotease-1
T1 sequence (P03956 whole entry): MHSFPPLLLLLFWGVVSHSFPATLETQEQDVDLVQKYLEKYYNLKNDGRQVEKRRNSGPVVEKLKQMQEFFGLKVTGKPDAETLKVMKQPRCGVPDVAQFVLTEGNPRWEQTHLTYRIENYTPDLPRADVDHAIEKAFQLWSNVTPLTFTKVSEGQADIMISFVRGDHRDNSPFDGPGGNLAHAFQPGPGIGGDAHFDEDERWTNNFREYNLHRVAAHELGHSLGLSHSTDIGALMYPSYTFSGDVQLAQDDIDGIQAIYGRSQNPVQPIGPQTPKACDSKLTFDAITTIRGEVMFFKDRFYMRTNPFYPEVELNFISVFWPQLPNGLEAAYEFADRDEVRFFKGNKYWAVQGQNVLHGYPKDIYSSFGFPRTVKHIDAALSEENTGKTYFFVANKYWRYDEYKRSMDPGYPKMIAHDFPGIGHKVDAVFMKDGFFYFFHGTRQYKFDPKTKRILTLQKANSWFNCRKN

Sequence of 72 kDa type IV collagenase (P08253 whole entry): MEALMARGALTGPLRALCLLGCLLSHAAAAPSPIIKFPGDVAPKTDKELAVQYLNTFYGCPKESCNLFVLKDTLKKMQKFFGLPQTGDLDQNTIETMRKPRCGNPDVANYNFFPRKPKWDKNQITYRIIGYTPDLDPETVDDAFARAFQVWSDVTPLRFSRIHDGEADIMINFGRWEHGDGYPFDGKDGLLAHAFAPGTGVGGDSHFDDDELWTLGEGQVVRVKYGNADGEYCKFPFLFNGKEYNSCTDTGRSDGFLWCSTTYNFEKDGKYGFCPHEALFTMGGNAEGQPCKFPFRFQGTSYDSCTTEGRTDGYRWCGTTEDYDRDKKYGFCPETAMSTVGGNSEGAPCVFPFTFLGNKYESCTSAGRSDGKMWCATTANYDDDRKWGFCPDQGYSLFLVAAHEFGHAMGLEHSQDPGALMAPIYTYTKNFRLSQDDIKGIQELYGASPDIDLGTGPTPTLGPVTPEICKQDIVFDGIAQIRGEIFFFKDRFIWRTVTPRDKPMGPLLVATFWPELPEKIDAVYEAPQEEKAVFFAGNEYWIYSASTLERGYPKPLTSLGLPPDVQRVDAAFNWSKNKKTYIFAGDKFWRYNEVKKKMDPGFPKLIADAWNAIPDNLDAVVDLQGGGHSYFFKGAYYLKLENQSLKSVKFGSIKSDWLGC
Sequence of Matrix metalloproteinase-9 (P14780 whole entry): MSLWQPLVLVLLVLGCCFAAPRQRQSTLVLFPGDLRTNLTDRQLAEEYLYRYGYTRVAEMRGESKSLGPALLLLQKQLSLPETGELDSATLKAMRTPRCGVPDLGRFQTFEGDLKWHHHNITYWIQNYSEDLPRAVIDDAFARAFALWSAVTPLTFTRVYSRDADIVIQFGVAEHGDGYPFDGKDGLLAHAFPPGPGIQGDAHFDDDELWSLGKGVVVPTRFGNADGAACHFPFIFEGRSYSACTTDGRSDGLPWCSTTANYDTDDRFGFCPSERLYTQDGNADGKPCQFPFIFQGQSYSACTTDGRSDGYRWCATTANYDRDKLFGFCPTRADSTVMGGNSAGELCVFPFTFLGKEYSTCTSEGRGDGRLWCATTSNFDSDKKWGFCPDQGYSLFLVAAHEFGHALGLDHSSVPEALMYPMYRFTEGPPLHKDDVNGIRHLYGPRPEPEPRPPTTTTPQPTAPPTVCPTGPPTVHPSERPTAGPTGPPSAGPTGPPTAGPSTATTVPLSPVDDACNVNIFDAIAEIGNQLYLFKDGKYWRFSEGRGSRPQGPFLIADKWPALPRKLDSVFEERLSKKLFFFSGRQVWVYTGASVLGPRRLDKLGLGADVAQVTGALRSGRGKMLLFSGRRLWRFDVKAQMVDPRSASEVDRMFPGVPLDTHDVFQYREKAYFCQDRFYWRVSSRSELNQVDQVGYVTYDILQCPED

SMILES | IC50 [1] [nM] | IC50 [2] [nM] | IC50 [3] [nM] | IC50 [4] [nM] | IC50 [5] [nM]
COc1ccc(S(=O)(=O)N2CC(C)(C)C([C@H](O)CSc3ccccc3)[C@@H]2C(=O)NO)cc1 (some centres not stated) | 0.9 | 2.5 | 3 | 3.7 | 117
COc1ccc(S(=O)(=O)N2CC(C)(C)C(CSCc3ccccc3)[C@@H]2C(=O)NO)cc1 (some centres not stated) | 0.9 | 1.64 | 6.7 | 5.5 | –
COc1ccc(S(=O)(=O)N2CC(C)(C)C([C@@H](O)CSc3ccccc3)[C@@H]2C(=O)NO)cc1 (some centres not stated) | 3.6 | 16.2 | 18.7 | 18.1 | 301
COc1ccc(S(=O)(=O)N(CC(C)C)[C@H](CCSCc2ccccc2)C(=O)NO)cc1 | 2.5 | 0.7 | 0.7 | 12 | 104
COc1ccc(CSCC2[C@H](C(=O)NO)N(S(=O)(=O)c3ccc(OC)cc3)CC2(C)C)cc1 (some centres not stated) | 4.4 | 4.6 | 16.7 | 22.3 | 458
COc1ccc(S(=O)(=O)N2CC(C)(C)C(CO)[C@@H]2C(=O)NO)cc1 (some centres not stated) | 50 | 143 | 136 | 218 | –
COc1ccc(S(=O)(=O)N2CC(C)(C)C(CSCCc3ccccc3)[C@@H]2C(=O)NO)cc1 (some centres not stated) | 2.8 | 15.4 | 6.5 | 17 | 654
C=CC1[C@H](C(=O)NO)N(S(=O)(=O)c2ccc(OC)cc2)CC1(C)C (some centres not stated) | 138 | 441 | 293 | 519 | –
COc1ccc(S(=O)(=O)N2CC(C)(C)C(COCc3ccccc3)[C@@H]2C(=O)NO)cc1 (some centres not stated) | 9.2 | 32 | 10.1 | 44.2 | 1620
